Literature values as cited in EP0801943A2, “Cosmetic and dermatological photoprotective compositions containing a triazine derivative and alkyl and/or dialkylesters of alpha, omega-alkanedicarboxylic acid” (Beiersdorf Aktiengesellschaft, priority 1996, dated 1997).

Details: maximum amount of the filter that known solvents (Bekannte Lösungsmittel) can dissolve; prior-art statement, no test described

Löslichkeit in Lipiden: ≤ 15 Gew.-%
Structure (SMILES): CCCCC(CC)COC(=O)c1ccc(Nc2nc(Nc3ccc(C(=O)OCC(CC)CCCC)cc3)nc(Nc3ccc(C(=O)OCC(CC)CCCC)cc3)n2)cc1 (stereo not shown) [UVINUL® T 150, 4,4',4''-(1,3,5-Triazin-2,4,6-triyltriimino)-tris-benzoesäure-tris(2-ethylhexylester)]
